Measured values as given in patent US20040063649A1, “Azithromycin combination for emesis control in mammals” (Pfizer Inc, priority 1999, published 2004).

Experiments:
[1] = tested on: azithromycin-induced emesis in azithromycin-sensitive English pointers; experiment: Control of azithromycin-induced emesis in an azithromycin-sensitive dog population; assay type: in vivo
Procedure: (§1) The ability of various compounds to control azithromycin-induced emesis in dogs was measured in 13 studies using two groups of dogs. The majority of the studies were conducted using a family (dam and offspring) of 12 azithromycin-sensitive English pointers, bred and maintained by Young Veterinary Research Services of Turlock, Calif. The remaining studies were conducted using random source dogs maintained at the Pfizer Animal Health Research facility in Terre Haute, Ind. In all studies, azithromycin was administered in immediate release formulations at a dose of 10 mg/kg.
Initially, four commercialized antiemetic products and CP122,721 were screened individually in the azithromycin-sensitive population with a minimum 7 day washout period between antiemetic tests. Antiemetics were administered orally about 15 to 30 minutes prior to oral treatment with 10 mg/kg azithromycin in an immediate release tablet. […] Other antiemetics reduced the incidence of emesis by only about 10 to 42%.
(§2) Four studies were conducted to titrate the dose of CP122,721 for maximum antiemetic activity with and without a delay between oral antiemetic and oral azithromycin dosing. […] While these studies were in progress, random source dogs (8 per-treatment) were administered 0, 1.5 or 3 mg/kg CP122,721 simultaneously with 10 mg/kg azithromycin. […] In the fourth study, the sensitive pointers received either 3 or 4 mg/kg CP122,721 simultaneously with azithromycin. The incidence of emesis was equivalent with one dog in each treatment group vomiting.

[2] = tested on: azithromycin-induced emesis in random source dogs; experiment: Control of azithromycin-induced emesis in random source dogs; assay type: in vivo, dog; settings: for Emetic Dogs/Total Dogs: Random source dogs, 0 minutes before (simultaneously with) azithromycin 10 mg/kg
Procedure: as §1, §2

[3] = tested on: emesis in ferrets; settings: vomiting caused by intragastric copper sulfate and ipecac syrup, subcutaneous loperamide, intraperitoneal cisplatin; cited from earlier work
[4] = antiemetic 1 mg/kg oral, 30 minutes before azithromycin 10 mg/kg oral immediate release tablet

Question: Which “Emetic Dogs/Total Dogs” value ([1]; antiemetic 0.5 mg/kg oral, 15 minutes before azithromycin 10 mg/kg oral immediate release tablet) does the source give for `CCN(CC)CCNC(=O)c1cc(Cl)c(N)cc1OC` [Metoclopramide, reference compound] here?
Answer: 11/12

Question: For `Cc1nccn1CC1CCc2c(c3ccccc3n2C)C1=O` (centres unmarked) [Ondansetron, reference compound], which “Emetic Dogs/Total Dogs” value [1, 4] is on record?
Answer: 5/12

Question: And the “reduction of the incidence of emesis” value ([1]; antiemetic oral about 15 to 30 minutes prior to oral azithromycin 10 mg/kg, doses as in Table 1)?
Answer: 58%

Question: For `CN(C)CCOC(c1ccccc1)c1ccccc1.Cn1c(=O)c2[nH]c(Cl)nc2n(C)c1=O` [Dimenhydrinate, reference compound], which “Emetic Dogs/Total Dogs” value ([1]; antiemetic 8 mg/kg oral, 30 minutes before azithromycin 10 mg/kg oral immediate release tablet) is on record?
Answer: 10/12

Question: Which “Emetic Dogs/Total Dogs” value [1, 4] does the source give for `CN1CCN(CCCN2c3ccccc3Sc3ccc(Cl)cc32)CC1` [Prochlorperazine, reference compound] here?
Answer: 7/12

Question: For `COc1ccc(OC(F)(F)F)cc1CN[C@H]1CCCN[C@H]1c1ccccc1` [CP122,721, (2S,3S)-3-(2-methoxy-5-trifluoromethoxybenzyl)amino-2-phenylpiperidine], which “effective in preventing emesis” value ([1]; 5 mg/kg oral, about 15 to 30 minutes prior to oral azithromycin 10 mg/kg) is on record?
Answer: 100%

Question: What about the “Emetic Dogs/Total Dogs” value ([1]; Sensitive dogs, 30 minutes before azithromycin 10 mg/kg) of the same compound?
Answer: 0/4

Question: And the “Emetic Dogs/Total Dogs” value ([1]; Sensitive dogs, CP122,721 1 mg/kg oral, 30 minutes before azithromycin 10 mg/kg)?
Answer: 4/4

Question: And the “Emetic Dogs/Total Dogs” value ([1]; Sensitive dogs, CP122,721 2.5 mg/kg oral, 0 minutes before (simultaneously with) azithromycin 10 mg/kg)?
Answer: 6/6

Question: And the “Emetic Dogs/Total Dogs” value ([1]; Sensitive dogs, CP122,721 2.5 mg/kg oral, 30 minutes before azithromycin 10 mg/kg)?
Answer: 0/6

Question: And the “Emetic Dogs/Total Dogs” value ([1]; Sensitive dogs, CP122,721 3 mg/kg, 0 minutes before (simultaneously with) azithromycin 10 mg/kg)?
Answer: 1/6

Question: And the “Emetic Dogs/Total Dogs” value ([1]; Sensitive dogs, CP122,721 4 mg/kg, 0 minutes before (simultaneously with) azithromycin 10 mg/kg)?
Answer: 1/6

Question: And the “Emetic Dogs/Total Dogs” value ([1]; Sensitive dogs, CP122,721 dose cell blank (third line of first titration), 30 minutes before azithromycin 10 mg/kg)?
Answer: 0/4

Question: What about the “Emetic Dogs/Total Dogs” value ([1]; antiemetic 5 mg/kg oral, 30 minutes before azithromycin 10 mg/kg oral immediate release tablet) of the same compound?
Answer: 0/12

Question: And the “emesis (in words)” value ([1]; sensitive pointers, 2.5 mg/kg simultaneously with azithromycin)?
Answer: all pointers were emetic

Question: What about the “prevention of emesis (in words)” value ([1]; sensitive pointers, 2.5 mg/kg, 30 minutes prior to azithromycin) of the same compound?
Answer: effective in preventing emesis

Question: What about the “dogs vomiting in treatment group” value ([1]; sensitive pointers, 3 mg/kg simultaneously with azithromycin) of the same compound?
Answer: one

Question: And the “dogs vomiting in treatment group” value ([1]; sensitive pointers, 4 mg/kg simultaneously with azithromycin)?
Answer: one

Question: And the “Emetic Dogs/Total Dogs” value ([2]; CP122,721 1.5 mg/kg)?
Answer: 4/8

Question: And the “Emetic Dogs/Total Dogs” value ([2]; CP122,721 3 mg/kg)?
Answer: 0/8

Question: And the “incidence of emesis (in words)” value ([2]; random source dogs, 8 per treatment, 1.5 mg/kg simultaneously with 10 mg/kg azithromycin)?
Answer: not reduced

Question: What about the “prevention of azithromycin emesis (in words)” value ([2]; random source dogs, 8 per treatment, 3 mg/kg simultaneously with 10 mg/kg azithromycin) of the same compound?
Answer: completely effective

Question: And the “effect on vomiting in ferrets (in words)” value [3]?
Answer: reduces vomiting
